Results from US4582827A, “Pesticidal diphenylaziridines” (priority 1983, dated 1986).

Assays:
[1] = tested on: Salmonella typhimurium strains TA 98, TA 100, TA 1535, TA 1537, TA 1538, TA 1978; test: Ames assay (spot test), revertant colonies; format: cell-based
Experimental: This means that aziridine compounds, 1, 10, or 11, will not cause mutations in DNA arising from potential changes in frame shift and/or base pairing. Compounds 1, 10 and 11 were tested for mutagenic properties using the following experimental procedure.
Potential mutagenic and carcinogenic properties of the compounds were evaluated with standard Ames assay procedures (Ames et al, "Mutation Res.", 31, p. 347, 1975). This assay used strains of Salmonella typhimurium selected for sensitivity and specificity in being reverted from a histidine requirement back to prototrophy by a wide variety of mutagens. Potential changes in frameshift were evaluated using strains TA 98, TA 1537 and TA 1538, while changes in base pairing were detected using strains TA 100 and TA 1535. In addition, strain TA 1978 was used, in combination with TA 1538, to evaluate whether the agent killed bacteria by damage to DNA that could be repaired by this strain. Initially, the compounds were screened using the spot test, in which 1000 μgm of material dissolved in 10 μl of DNSO was applied to the middle of the plate.
Dose-response tests were not performed because the results were negative. All the tests were carried out in the presence and absence of an S9 rat liver preparation and contained a positive control (2-acetylaminofluorene,AAF) and a negative control (DMSO).

[2] = tested on: tobacco hornworm (Manduca sexta) larvae; test: Tobacco hornworm growth and developmental responses to feeding on diets containing the compounds; format: in vivo; settings: for Total No. of Adults: all tests began with 15 larvae
Experimental: The compounds produced and described in Example 1 were then tested for pesticidal activity against the tobacco hornworm (Manduca sexta). The screening procedure for these tests began with the larval stage and continued through the pupal and adult stages and finally evaluated egg production. The studies thus permitted the evaluation of the effects of the compounds over several subsequent developmental stages in the total life cycle of the insect, giving estimates of acute toxicity (insecticidalor larvicidal activity) as well as prolonged or delayed effects on development (growth regulation) and reproduction (chemosterilization). The latter are of special importance in conjunction with the integrated pest management approach to insect control.
The test compounds were incorporated into the artificial diet of tobacco hornworm larvae and their subsequent growth and developmental responses were monitored using the following parameters: larval mortality including determination of LD50 values, rate of larval development and weight gain, percent pupation, pupal weight and degree of deformities, percent adult emergence and measures of reproductive capacity such as the number of developed ooctyes, fecundity and fertility. The protocol for the screening tests has been developed over a number of years by Dahlman et al., Comp. Biochem. Physiol. 51A, 33, (1975); Comp. Biochem. Physiol., 52A, 105 (1975); Ent. Exp. et Appl., 22, 123 (1977); Palumbo and D. L. Dahlman, J. Econ. Entomol. 71, 674 (1978); D. L. Dahlman, Ent. Exp. et Appl., 24, 327 (1978).
Each treatment used 15 newly ecdysed fifth-instar larvae. Death of larvae within a few hours to several days of initial exposure was considered to be acute toxicity. However, the compounds may reduce the maximum size attained by larvae and/or may retard growth so that larvae require additional time to attain their maximum size. Developmental parameters subsequent to the feeding stage also may be affected. […] Mortality may occur in the pupal stage or emerging adults may have wrinkled wings or other deformities. The number of eggs produced by treated females may be reduced and/or unfertile. Although acute toxicity is desirable in the control of any insect, the delayed effects which result in poor survival and reduced reproductive capacity are significant factors in the long-range program of pest management systems.
Continuous cultures of M. sexta are maintained according to the procedures of Yamamoto, J. Econ. Entomol., 62, p. 1427 (1969). Ingredients of the diet formulation include sugar, casein, wheat germ oil, cholesterol, salt mixture, yeast, vitamins, antioxidants and fungal inhibitors, such as ascorbic acid, sorbic acid, formaldehyde and methyl-p-benzoate. All are incorporated into a liquid agar base which, when poured into holding pans, solidifies to form an adequate substrate upon which the insect larvae feed. Nearly any test material can be uniformly incorporated into such a diet. Thus, exposure to experimental compounds can be evaluated during all or any part of the larval stage. In addition, chronic or long-term effects in subsequent life stages can also be monitored.
The results from these studies, in which the 1,2-diphenylaziridines of Example 1 were incorporated singly into the diet of M. sexta at a concentration of 5 mM are presented in the following Table I.

SMILES | % Adult Emergence ([2]; 5 mM in diet) [%] | % Malformed Adults ([2]; 5 mM in diet) [%] | % Pupation ([2]; 5 mM in diet) [%] | Days to Max Wt ([2]; 5 mM in diet) | Max Larval Wt ([2]; 5 mM in diet) | Mean No. of Eggs ([2]; 5 mM in diet) | No. of female Adults ([2]; 5 mM in diet) | Total No. of Adults ([2]; 5 mM in diet) | effects on tobacco hornworm development ([2]; summary of Tables I and II) | also measured
CC(=O)Nc1ccc2c(c1)Cc1ccccc1-2 [AAF, 2-acetylaminofluorene, reference compound] |  |  |  |  |  |  |  |  |  | Mean number of revertant colonies per plate, TA 98 +S9 ([1]; strain TA 98, +S9): 284.7 colonies per plate; Mean number of revertant colonies per plate, TA 98 -S9 ([1]; strain TA 98, -S9): 32.7 colonies per plate; Mean number of revertant colonies per plate, TA 100 +S9 ([1]; strain TA 100, +S9): 78.0 colonies per plate; Mean number of revertant colonies per plate, TA 100 -S9 ([1]; strain TA 100, -S9): 25.3 colonies per plate; Mean number of revertant colonies per plate, TA 1535 +S9 ([1]; strain TA 1535, +S9): 19.7 colonies per plate; Mean number of revertant colonies per plate, TA 1535 -S9 ([1]; strain TA 1535, -S9): 15.7 colonies per plate; Mean number of revertant colonies per plate, TA 1537 +S9 ([1]; strain TA 1537, +S9): 14.7 colonies per plate; Mean number of revertant colonies per plate, TA 1537 -S9 ([1]; strain TA 1537, -S9): 7.7 colonies per plate; Mean number of revertant colonies per plate, TA 1538 +S9 ([1]; strain TA 1538, +S9): 313.7 colonies per plate; Mean number of revertant colonies per plate, TA 1538 -S9 ([1]; strain TA 1538, -S9): 14.7 colonies per plate; Mean number of revertant colonies per plate, TA 1978 +S9 ([1]; strain TA 1978, +S9): 358.3 colonies per plate; Mean number of revertant colonies per plate, TA 1978 -S9 ([1]; strain TA 1978, -S9): 196.3 colonies per plate
O=[N+]([O-])c1ccccc1C1CN1c1ccc(Cl)c(Cl)c1 (centres unmarked) [Compound 2] | 47 | 71 | 93 | 6.2 ± .1 days | 8.58 ± .31 g | 83 ± 29 | 5 | 7 |  | pupal mortality ([2]; 5 mM in diet): significant pupal mortality; wrinkled or crumpled wings of moths ([2]; 5 mM in diet): observed in significant numbers of moths; pupal mortality ([2]; summary of Tables I and II): caused pupal mortality
O=[N+]([O-])c1cccc(N2CC2c2ccccc2[N+](=O)[O-])c1 (centres unmarked) [Compound 3] | 80 | 8 | 100 | 5.2 ± .1 days | 9.21 ± .24 g | 97 ± 14 | 9 | 12 | had no effect | 
O=[N+]([O-])c1cccc(C2CN2c2ccccc2)c1 (centres unmarked) [Compound 4] | 100 | 7 | 100 | 5.1 ± .1 days | 9.01 ± .17 g | 67 ± 16 | 9 | 15 | had no effect | 
Clc1ccccc1C1CN1c1ccccc1 (centres unmarked) [Compound 5] | 40 | 17 | 40 | 7.3 ± 1.4 days | 5.42 ± .42 g | 14 ± 17 | 3 | 6 | reduction in maximum larval weight, percent pupation, and mean number of eggs, and an increase in malformed adults | feeding time required to attain reduced maximum weight ([2]; 5 mM in diet): extended the feeding time; larval mortality ([2]; 5 mM in diet): significant larval mortality; percent adult emergence ([2]; 5 mM in diet): significantly lower than controls; percent pupation ([2]; 5 mM in diet): a reduction in percent pupation; reduction in the maximum weight of hornworm larvae ([2]; 5 mM in diet): 30-50%; mean number of eggs ([2]; 5 mM in diet, 4 day old females): significantly reduced the mean number of eggs
